# Data: patent US10264787B1, “Natural mosquito larvicide” (BIOVECBLOK, s.r.l., priority 2017, dated 2019)
# Test system: Larvae and pupae of Anopheles gambiae, An. stephensi, Aedes albopictus and Ae. aegypti
# Conditions: after 24 hours post application; 0.03 g tyrosine in 200 ml breeding water; first to fourth-instar larvae
# Experimental: The pre-adult developmental stages were grown under these conditions: 28° C., 80% relative humidity and a photoperiod of 12 h light followed by 12 h dark.
# Mosquito larvicidal/pupicidal tests were carried out based on the WHO standardized procedures and guidelines for larvicidal assay.
# For each mosquito species, 24 hours before the assay to reduce the larval stress, we prepared 6 trays [15 cm (width), 15 cm (length) and 6.5 cm (deep)] one for each tested products, containing 200 ml of breeding water which includes 40 mosquito larvae (first, second, third, fourth-instars) and 10 pupae. Each assay comprised of 3 replicates.
# Mortality was recorded every 30 minutes from beginning for the pre-adult developmental stages (larvae and pupe). […] The dead larvae and pupae were recorded, and the average percentage mortality was calculated.
compound,measurement,value
N[C@@H](Cc1ccc(O)cc1)C(=O)O [tyrosine],larval mortality,about 60%
